Assay results from US7759331B2, “Pyridine-containing macroheterococylic compounds as kinase inhibitors” (Janssen Pharmaceutica NV, priority 2006, dated 2010).

Tests used:
Assay in all cases: Protein kinase selectivity panel
Assay type in all cases: biochemical
Details in all cases: 1.0 μM compound, 10 μM ATP
Ros(h) = Ros(h) (Homo sapiens, UniProt P08922)
Method: (§1) Protein kinase selectivity assays were performed as described in the scientific literature (Davies, S. P., et al., Biochem. J. 2000, 351, 95-105). Briefly, protein kinases were assayed for their ability to phosphorylate the appropriate peptide/protein substrates in the presence of 1.0 μM compound. Assays were done using 10 μM ATP and were linear with respect to time. The protein kinase selectivity assays were performed by Upstate Cell Signaling Solutions using Upstate's KinaseProfiler™ Selectivity Screening Service.

MEK1(h) = MEK1(h) (Homo sapiens, UniProt Q02750)
MEK1(h), sequence (Q02750 whole entry): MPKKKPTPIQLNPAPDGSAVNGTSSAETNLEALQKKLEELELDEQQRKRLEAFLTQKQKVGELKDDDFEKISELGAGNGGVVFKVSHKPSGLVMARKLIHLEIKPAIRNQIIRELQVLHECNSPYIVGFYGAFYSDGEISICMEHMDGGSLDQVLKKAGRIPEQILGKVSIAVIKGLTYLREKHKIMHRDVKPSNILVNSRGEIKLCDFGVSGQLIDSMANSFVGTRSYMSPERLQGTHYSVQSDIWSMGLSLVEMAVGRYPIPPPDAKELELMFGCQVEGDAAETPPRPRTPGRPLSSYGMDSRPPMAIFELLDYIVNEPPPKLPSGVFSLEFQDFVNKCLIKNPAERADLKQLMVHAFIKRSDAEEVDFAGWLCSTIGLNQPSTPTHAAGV
Method: as §1

MAPK1(h) = MAPK1(h) (Homo sapiens, UniProt P27361)
MAPK1(h), sequence (P27361 whole entry): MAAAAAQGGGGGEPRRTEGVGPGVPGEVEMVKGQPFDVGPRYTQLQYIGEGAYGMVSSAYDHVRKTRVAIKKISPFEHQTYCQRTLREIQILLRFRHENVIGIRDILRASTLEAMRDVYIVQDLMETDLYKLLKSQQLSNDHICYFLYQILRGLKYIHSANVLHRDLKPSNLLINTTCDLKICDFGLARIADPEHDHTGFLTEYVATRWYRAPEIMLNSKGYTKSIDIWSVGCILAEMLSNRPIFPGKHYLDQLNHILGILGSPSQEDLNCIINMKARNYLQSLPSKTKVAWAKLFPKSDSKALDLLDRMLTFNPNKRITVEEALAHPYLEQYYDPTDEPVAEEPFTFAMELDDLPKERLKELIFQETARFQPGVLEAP
Method: as §1

SAPK4(h) = molecular target: T1, SAPK4(h) (Homo sapiens, UniProt O15264)
T1 sequence (O15264 1-365): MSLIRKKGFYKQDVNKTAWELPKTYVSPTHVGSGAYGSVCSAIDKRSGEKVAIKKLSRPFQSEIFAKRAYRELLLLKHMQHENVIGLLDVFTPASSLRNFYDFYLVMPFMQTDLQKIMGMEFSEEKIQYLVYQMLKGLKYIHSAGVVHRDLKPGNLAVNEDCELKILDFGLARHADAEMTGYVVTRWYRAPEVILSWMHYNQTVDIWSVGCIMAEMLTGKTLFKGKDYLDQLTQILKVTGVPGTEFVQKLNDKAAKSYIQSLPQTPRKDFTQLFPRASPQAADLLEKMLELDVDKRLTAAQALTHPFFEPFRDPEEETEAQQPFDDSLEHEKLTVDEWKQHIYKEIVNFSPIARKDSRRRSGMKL
Method: as §1

CSK(h) = CSK(h) (Homo sapiens, UniProt P41240)
CSK(h), sequence (P41240 whole entry): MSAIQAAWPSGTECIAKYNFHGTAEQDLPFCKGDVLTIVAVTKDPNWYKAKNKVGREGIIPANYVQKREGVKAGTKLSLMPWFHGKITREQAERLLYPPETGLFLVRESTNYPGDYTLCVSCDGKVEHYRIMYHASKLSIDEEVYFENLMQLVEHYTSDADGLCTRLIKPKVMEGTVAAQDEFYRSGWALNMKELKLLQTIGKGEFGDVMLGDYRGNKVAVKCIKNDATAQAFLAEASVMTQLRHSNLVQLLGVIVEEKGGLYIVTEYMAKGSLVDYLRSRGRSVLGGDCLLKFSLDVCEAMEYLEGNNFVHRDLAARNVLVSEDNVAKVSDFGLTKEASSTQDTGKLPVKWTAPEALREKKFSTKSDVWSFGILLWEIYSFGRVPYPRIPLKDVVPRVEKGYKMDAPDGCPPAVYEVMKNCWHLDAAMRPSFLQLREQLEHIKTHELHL
Method: as §1

c-RAF(h) = c-RAF(h) (Homo sapiens, UniProt P04049)
c-RAF(h), sequence (P04049 whole entry): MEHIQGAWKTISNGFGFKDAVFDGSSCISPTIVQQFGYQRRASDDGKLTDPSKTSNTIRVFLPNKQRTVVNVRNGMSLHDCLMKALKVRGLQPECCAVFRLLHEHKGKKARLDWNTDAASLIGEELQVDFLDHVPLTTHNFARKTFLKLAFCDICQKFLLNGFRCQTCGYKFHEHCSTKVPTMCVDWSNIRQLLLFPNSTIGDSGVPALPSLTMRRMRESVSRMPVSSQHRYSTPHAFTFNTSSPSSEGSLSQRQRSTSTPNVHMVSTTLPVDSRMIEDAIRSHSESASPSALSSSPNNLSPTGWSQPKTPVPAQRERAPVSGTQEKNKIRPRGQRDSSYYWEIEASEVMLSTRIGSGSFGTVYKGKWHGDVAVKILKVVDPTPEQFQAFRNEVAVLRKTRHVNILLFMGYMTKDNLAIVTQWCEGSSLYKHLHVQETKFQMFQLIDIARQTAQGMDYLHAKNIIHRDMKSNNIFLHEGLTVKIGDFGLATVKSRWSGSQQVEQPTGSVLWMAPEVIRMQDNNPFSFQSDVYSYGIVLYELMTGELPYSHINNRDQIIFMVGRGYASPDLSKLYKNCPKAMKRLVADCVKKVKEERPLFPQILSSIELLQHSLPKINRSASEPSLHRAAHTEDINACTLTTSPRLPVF
Method: as §1

cSRC(h) = cSRC(h) (Homo sapiens, UniProt P12931)
cSRC(h), sequence (P12931 whole entry): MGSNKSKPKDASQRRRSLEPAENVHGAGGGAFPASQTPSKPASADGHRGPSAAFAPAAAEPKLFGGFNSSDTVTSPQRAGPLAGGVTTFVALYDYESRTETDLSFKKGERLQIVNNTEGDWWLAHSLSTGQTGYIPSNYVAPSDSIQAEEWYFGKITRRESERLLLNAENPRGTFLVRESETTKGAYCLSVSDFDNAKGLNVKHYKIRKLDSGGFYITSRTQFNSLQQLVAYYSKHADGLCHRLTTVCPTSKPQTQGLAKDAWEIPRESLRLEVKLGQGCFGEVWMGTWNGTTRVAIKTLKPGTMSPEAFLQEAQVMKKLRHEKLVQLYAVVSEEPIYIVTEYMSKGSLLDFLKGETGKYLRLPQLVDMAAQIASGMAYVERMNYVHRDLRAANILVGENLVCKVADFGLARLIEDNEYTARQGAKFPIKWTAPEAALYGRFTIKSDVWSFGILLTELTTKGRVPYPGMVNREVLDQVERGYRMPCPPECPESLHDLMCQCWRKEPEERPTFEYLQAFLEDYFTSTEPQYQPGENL
Method: as §1

Arg(m) = Arg(m) (Mus musculus, UniProt Q4JIM5)
Method: as §1

Flt3(h) = molecular target: T2, Flt3(h) (Homo sapiens, UniProt P36888)
T2 sequence (P36888 27-993): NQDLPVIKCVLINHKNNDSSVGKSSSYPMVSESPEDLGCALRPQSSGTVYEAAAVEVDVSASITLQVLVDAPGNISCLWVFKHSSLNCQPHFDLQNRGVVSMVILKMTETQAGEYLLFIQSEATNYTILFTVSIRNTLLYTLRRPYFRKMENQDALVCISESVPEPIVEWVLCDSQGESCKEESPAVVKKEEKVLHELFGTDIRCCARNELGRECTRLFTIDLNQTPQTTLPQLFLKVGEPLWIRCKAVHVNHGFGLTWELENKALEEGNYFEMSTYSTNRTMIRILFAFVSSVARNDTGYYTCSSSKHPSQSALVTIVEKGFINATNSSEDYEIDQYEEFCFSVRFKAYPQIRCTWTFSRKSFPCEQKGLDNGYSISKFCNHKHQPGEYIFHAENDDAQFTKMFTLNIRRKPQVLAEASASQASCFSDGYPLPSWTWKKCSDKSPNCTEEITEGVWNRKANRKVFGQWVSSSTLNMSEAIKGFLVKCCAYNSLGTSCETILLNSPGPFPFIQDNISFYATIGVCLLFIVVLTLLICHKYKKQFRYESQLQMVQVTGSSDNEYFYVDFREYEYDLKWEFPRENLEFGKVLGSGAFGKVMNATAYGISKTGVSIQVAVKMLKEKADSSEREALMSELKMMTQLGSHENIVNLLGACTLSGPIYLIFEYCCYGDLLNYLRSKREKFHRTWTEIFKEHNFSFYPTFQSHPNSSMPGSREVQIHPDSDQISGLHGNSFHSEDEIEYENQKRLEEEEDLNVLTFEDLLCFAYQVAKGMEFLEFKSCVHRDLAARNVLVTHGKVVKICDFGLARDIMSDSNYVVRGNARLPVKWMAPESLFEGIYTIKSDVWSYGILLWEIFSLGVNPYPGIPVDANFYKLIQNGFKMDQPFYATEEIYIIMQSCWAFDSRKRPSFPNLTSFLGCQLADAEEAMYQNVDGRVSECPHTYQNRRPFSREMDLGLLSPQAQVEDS
Method: as §1

JNK3(h) = JNK3(h) (Homo sapiens, UniProt P53779)
Method: as §1

MKK6(h) = molecular target: T3, MKK6(h) (Homo sapiens, UniProt P52564)
T3 sequence (P52564 1-334): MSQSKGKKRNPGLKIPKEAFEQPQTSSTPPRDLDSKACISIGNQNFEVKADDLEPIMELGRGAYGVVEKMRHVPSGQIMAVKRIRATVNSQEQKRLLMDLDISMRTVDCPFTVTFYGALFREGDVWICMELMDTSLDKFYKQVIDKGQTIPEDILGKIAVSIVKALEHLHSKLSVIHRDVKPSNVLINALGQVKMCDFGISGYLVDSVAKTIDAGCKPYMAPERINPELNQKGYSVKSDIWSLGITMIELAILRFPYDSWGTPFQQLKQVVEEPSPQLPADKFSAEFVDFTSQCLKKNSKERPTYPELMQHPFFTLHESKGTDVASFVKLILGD
Method: as §1

CaMKIV(h) = molecular target: T4, CaMKIV(h) (Homo sapiens, UniProt Q16566)
T4 sequence (Q16566 1-473): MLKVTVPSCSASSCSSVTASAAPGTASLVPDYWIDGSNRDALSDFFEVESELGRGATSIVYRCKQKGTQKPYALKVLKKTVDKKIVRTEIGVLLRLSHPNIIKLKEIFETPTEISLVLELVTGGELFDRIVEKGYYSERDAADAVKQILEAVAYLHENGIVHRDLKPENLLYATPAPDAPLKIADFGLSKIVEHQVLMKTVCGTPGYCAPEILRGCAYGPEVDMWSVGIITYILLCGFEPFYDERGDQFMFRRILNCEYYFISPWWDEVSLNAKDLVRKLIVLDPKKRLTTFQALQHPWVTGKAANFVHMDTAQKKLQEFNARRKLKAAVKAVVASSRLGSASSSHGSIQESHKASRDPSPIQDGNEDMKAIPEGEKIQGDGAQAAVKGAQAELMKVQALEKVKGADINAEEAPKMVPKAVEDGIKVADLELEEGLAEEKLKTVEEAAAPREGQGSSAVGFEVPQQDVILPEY
Method: as §1

Ros(h), sequence (P08922 28-2347): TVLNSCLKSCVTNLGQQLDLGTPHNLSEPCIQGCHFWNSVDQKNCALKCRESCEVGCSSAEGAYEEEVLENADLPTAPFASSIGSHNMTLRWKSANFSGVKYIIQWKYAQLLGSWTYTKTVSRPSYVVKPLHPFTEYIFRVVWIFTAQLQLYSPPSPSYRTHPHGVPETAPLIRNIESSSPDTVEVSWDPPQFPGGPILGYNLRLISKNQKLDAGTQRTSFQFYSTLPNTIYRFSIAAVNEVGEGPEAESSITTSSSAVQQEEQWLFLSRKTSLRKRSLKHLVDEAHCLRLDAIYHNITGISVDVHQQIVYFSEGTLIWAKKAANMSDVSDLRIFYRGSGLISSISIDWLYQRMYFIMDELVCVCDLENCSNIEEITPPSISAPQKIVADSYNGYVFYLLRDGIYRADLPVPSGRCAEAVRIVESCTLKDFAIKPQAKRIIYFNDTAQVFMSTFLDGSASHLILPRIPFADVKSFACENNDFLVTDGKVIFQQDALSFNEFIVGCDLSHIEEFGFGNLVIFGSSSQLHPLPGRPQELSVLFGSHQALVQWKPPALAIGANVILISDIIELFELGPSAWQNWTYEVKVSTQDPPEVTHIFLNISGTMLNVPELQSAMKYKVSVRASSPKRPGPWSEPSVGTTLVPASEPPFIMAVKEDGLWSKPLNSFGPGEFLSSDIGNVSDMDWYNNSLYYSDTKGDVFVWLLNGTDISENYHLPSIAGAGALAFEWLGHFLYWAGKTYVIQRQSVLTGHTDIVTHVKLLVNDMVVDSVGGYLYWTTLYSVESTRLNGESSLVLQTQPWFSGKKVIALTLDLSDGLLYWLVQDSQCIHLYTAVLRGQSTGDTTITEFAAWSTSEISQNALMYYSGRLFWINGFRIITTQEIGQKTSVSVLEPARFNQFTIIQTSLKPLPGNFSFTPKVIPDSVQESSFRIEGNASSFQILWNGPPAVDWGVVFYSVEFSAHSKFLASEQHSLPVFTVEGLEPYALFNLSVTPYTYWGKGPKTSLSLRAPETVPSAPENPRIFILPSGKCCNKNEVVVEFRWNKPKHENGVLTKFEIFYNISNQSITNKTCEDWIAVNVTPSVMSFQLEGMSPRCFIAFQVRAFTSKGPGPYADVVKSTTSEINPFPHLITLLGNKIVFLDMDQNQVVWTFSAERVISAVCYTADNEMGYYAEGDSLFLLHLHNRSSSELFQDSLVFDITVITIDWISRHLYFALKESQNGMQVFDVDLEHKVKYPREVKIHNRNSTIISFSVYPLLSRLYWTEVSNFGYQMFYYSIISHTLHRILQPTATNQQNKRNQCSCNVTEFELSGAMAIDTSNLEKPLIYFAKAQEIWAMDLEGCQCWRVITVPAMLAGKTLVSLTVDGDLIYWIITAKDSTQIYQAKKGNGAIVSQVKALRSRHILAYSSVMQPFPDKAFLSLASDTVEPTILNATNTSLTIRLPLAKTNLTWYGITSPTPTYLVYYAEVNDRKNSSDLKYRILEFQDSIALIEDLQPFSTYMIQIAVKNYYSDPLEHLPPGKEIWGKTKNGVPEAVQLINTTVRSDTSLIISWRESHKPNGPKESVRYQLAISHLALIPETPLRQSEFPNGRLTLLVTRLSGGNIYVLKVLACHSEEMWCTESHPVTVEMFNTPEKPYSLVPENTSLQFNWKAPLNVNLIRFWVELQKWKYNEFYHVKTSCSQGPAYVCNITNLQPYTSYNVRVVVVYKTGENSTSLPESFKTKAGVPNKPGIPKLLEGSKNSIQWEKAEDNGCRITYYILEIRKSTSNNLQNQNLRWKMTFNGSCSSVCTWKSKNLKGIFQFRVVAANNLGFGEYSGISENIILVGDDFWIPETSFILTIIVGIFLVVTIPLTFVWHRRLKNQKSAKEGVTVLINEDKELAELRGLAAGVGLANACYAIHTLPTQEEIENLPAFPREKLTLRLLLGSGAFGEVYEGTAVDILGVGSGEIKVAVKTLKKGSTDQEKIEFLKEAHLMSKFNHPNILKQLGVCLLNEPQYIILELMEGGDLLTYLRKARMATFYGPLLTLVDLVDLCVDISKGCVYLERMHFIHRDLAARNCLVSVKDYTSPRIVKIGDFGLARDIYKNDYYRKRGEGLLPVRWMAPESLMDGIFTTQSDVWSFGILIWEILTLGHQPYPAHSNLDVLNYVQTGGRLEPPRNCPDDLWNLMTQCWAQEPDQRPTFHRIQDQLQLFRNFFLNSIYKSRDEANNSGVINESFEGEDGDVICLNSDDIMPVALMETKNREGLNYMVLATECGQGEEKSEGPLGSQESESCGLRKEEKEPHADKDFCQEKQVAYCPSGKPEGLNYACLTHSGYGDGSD

| Structure (SMILES) | Activity at Protein Kinase Assays (% of control), Ros(h) (Ros(h)) | Activity at Protein Kinase Assays (% of control), MEK1(h) (MEK1(h)) | Activity at Protein Kinase Assays (% of control), MAPK1(h) (MAPK1(h)) | Activity at Protein Kinase Assays (% of control), SAPK4(h) (SAPK4(h)) | Activity at Protein Kinase Assays (% of control), CSK(h) (CSK(h)) | Activity at Protein Kinase Assays (% of control), c-RAF(h) (c-RAF(h)) | Activity at Protein Kinase Assays (% of control), cSRC(h) (cSRC(h)) | Activity at Protein Kinase Assays (% of control), Arg(m) (Arg(m)) | Activity at Protein Kinase Assays (% of control), Flt3(h) (Flt3(h)) | Activity at Protein Kinase Assays (% of control), JNK3(h) (JNK3(h)) | Activity at Protein Kinase Assays (% of control), MKK6(h) (MKK6(h)) | Activity at Protein Kinase Assays (% of control), CaMKIV(h) (CaMKIV(h)) |
| --- | --- | --- | --- | --- | --- | --- | --- | --- | --- | --- | --- | --- |
| CN(C)c1cc2cc(n1)CCCn1cc(c3ccccc31)C1=C(C(=O)NC1=O)c1cn(c3ccccc13)CCC2 [Cpd 2, 20-(dimethylamino)-4,14,19,26-tetraazaheptacyclo[24.6.1.1^7,14.1^18,22.0^2,6.0^8,13.0^27,32]pentatriaconta-1(33),2(6),7(35),8,10,12,18(34),19,21,27,29,31-dodecaene-3,5-dione] | 108 % of control | 93 % of control | 86 % of control | 104 % of control | 133 % of control | 87 % of control | 105 % of control | 129 % of control | 71 % of control | 107 % of control | 86 % of control | 113 % of control |
| CN(C)c1nc2ccc1CCCCn1cc(c3ccccc31)C1=C(C(=O)NC1=O)c1cn(c3ccccc13)CCC2 [Cpd 1, 31-(dimethylamino)-5,15,25,32-tetraazaheptacyclo[28.2.2.1^5,12.1^18,25.0^6,11.0^13,17.0^19,24]hexatriaconta-1(32),6,8,10,12(36),13(17),18(35),19,21,23,30,33-dodecaene-14,16-dione] | 79 % of control | 76 % of control | 97 % of control | 101 % of control | 95 % of control | 103 % of control | 81 % of control | 113 % of control | 86 % of control | 96 % of control | 102 % of control | 92 % of control |
| O=C1NC(=O)C2=C1c1cn(c3ccccc13)CCCc1ccc(c(N3CCCC3)n1)CCCn1cc2c2ccccc21 [Cpd 7, 31-pyrrolidin-1-yl-5,15,25,30-tetraazaheptacyclo[27.2.2.1^5,12.1^18,25.0^6,11.0^13,17.0^19,24]pentatriaconta-1(31),6,8,10,12(35),13(17),18(34),19,21,23,29,32-dodecaene-14,16-dione] | 105 % of control | 98 % of control | 110 % of control | 102 % of control | 129 % of control | 85 % of control | 113 % of control | 130 % of control | 85 % of control | 102 % of control | 85 % of control | 99 % of control |
| O=C1NC(=O)C2=C1c1cn(c3ccccc13)CCCc1cc(nc(N3CCCC3)c1)CCCn1cc2c2ccccc21 [Cpd 6, 20-pyrrolidin-1-yl-4,14,19,26-tetraazaheptacyclo[24.6.1.1^7,14.1^18,22.0^2,6.0^8,13.0^27,32]pentatriaconta-1(33),2(6),7(35),8,10,12,18(34),19,21,27,29,31-dodecaene-3,5-dione] | 117 % of control | 91 % of control | 99 % of control | 102 % of control | 125 % of control | 92 % of control | 97 % of control | 121 % of control | 77 % of control | 103 % of control | 91 % of control | 112 % of control |
